Measurements published in PMC5910208 (ACS chemical biology, 2018).

Legend:
LaPhzM = molecular target: T1, LaPhzM (Lysobacter antibioticus, UniProt A0A172J1V3); test: X-ray crystal structure, […] Å; format: binding; conditions: crystallised with SAM added; SAH found in cofactor site
T1 sequence (A0A172J1V3 1-341): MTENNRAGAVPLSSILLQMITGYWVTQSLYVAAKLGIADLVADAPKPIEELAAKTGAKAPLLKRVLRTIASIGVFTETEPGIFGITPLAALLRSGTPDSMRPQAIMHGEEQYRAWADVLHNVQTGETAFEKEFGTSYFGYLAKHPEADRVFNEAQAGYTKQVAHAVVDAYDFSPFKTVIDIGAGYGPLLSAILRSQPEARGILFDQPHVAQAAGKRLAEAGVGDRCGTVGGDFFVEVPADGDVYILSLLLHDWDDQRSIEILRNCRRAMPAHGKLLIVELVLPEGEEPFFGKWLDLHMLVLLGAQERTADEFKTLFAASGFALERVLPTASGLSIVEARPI

LaPhzNO1 = molecular target: T2, LaPhzNO1 (Lysobacter antibioticus, UniProt A0A172J1R7); test: HPLC / LC-MS product analysis, coupled with LaPhzS making DHP from PDC; format: biochemical; conditions: NADPH, FAD; phosphate 100 mM pH 7.0, RT
T2 sequence (A0A172J1R7 1-541): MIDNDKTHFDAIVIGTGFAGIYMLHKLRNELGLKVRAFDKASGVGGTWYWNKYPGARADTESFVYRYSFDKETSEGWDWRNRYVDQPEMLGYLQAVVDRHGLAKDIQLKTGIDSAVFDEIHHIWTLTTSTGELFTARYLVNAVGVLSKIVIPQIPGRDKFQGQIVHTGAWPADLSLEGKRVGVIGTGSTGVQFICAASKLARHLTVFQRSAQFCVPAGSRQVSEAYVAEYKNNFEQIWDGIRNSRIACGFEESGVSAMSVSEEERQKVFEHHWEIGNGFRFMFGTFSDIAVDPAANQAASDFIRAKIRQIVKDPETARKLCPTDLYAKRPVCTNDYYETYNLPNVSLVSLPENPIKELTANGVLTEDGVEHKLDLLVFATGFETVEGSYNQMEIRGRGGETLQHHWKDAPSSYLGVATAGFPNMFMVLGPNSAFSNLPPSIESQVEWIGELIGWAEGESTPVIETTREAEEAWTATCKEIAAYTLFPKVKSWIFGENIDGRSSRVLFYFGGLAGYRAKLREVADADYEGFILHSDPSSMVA

[1] = substrate: COc1cccc2c1nc1cccc(O)c1[n+]2[O-]; test: initial velocity by HPLC of SAH formed, Michaelis-Menten fit; format: biochemical, Lysobacter antibioticus; conditions: co-substrate SAM, Tris 50 mM, pH 7.8, RT

## Nc1ncnc2c1ncn2[C@@H]1O[C@H](CSCC[C@H](N)C(=O)O)[C@@H](O)[C@H]1O [S-adenosyl-L-homocysteine]
LaPhzM
  X-ray crystal structure, 1.42 Å: electron density around the cofactor binding site clearly indicates an S-adenosyl-L-homocysteine (SAH), instead of a SAM

## Oc1cccc2nc3c(O)cccc3nc12 [compound 7, 1,6-dihydroxyphenazine]
LaPhzNO1
  HPLC / LC-MS product analysis, coupled with LaPhzS making DHP from PDC: When the second enzyme LaPhzNO1 and another cofactor NADPH were added in the reaction mixture

B1: LaPhzM (Lysobacter antibioticus) (protein)
chain: T1 sequence (A0A172J1V3 1-341)
[1]
  Km: 33.6 µM
  kcat: 0.01 s⁻¹
